The numbers were not newly measured in patent publication US8841334B2, “Compounds as cannabinoid receptor ligands and uses thereof” (priority 2006, dated 2014), which cites them from elsewhere.

Data set [1] deals with microglial activation and neurotoxicity. To be noted: in vitro.
The next data set concerns rodent models. Particulars: rodent models of neuropathic, incisional, and both chronic and acute inflammatory pain.
The test system of data set [2] is apolipoprotein E knockout mice.
Another data set has as its system mice. Particulars: model for post-menopausal osteoporosis.
A further data set has as its system animal models. Particulars: animal models of acute thermal pain, persistent pain, inflammatory pain and neuropathic pain.
The subject of a further data set is rat. To be noted: rat formalin model of persistent pain.

With `CCCC(C)(C)c1ccc2c(c1)OC(C)(C)[C@@H]1CC=C(C)C[C@@H]21` [JWH-133], in data set [1], the “[…]-amyloid-induced microglial activation and neurotoxicity” value is “abrogated”.
On to `COc1ccc2c(c1)c(CCN1CCOCC1)c(C)n2C(=O)c1cccc(Cl)c1Cl` [GW405833], for which the “efficacy in pain models” value in the data set with rodent models is listed as “efficacious”.
As to SR144528, in the data set on osteoclast activity, the osteoclast activity result was “inhibit osteoclast activity”. Also, the “inhibition of the effects of THC on atherosclerotic lesions” value in data set [2] (mouse, in vivo) is “inhibited”. In addition, in the data set on mice, the ovariectomy-induced bone loss result was “reverse ovariectomy-induced bone loss”. Besides, the “block of the effects of JWH-133 on microglial activation and neurotoxicity” value in data set [1] was “blocked”.
`CN1CCCCC1Cn1cc(C(=O)c2cc([N+](=O)[O-])ccc2I)c2ccccc21` (stereo not drawn) [AM-1241]: in the data set on animal models, the analgesic efficacy result is “robust analgesic efficacy”.
`CCCCCCC(C)(C)c1cc(OC)c([C@@H]2C=C(CO)[C@@H]3C[C@H]2C3(C)C)c(OC)c1` [HU-308]: in the data set on rat, the antinociceptive response result is recorded as “elicits an antinociceptive response”.
As to (−)-Δ^9-Tetrahydrocannabinol [THC], the “progression of atherosclerotic lesions” value in data set [2] (low doses) is “slowed the progression of atherosclerotic lesions”.
